What was measured:
Test in all cases: isoTOP-ABPP mapping of AEA-DA-modified peptides in Neuro2a cells
Type in all cases: cell-based
[1] = target: T1, AEA-DA-modified peptides in Neuro2a cells (Mus musculus, UniProt O35459); settings: probe 100 μM, 12 replicates
T1 construct: endogenous in cells; host or cells: Neuro2a
Procedure: (§1) Experiments were performed as described above using the AEA-DA probe (100 μM) in 3.0 mL of DMEM (serum-free) and Neuro2A cells without (twelve replicates; ten biological; two technical). For the ligand competition study, cells were treated with the AEA-DA probe (50 μM) and DMSO or MJN228 (50 μM) treatment. Cells were harvested and processed as described above. Whole cell lysates (500 μL at 1.5 mg/mL) were processed for MS analysis using the previously described isoTOPABPP protocol (Speers and Cravatt, 2005). In brief, for global mapping of AEA-DA-modified peptides, proteomes were split into two fractions, which were subjected to click chemistry conditions with either light or heavy isotopically labeled TEV-tags. For the […] competition study, proteomes were subjected to click chemistry conditions with either light (DMSO) or heavy (MJN228-treated) TEV-tags. Light and heavy-tagged proteomes in each experiment were then combined, and, following enrichment of probe-labeled targets using streptavidin beads, proteins were digested on-bead with trypsin and remaining immobilized peptides released with a subsequent TEV protease digestion. The resulting probe-modified peptides were collected for MS analysis, which was performed as described above with differences in the salt bumps applied in the chromatographic gradients which were 0%, 30%, 60%, 90% and 100% NH4OAc (500 mM). The protein identification searches of the MS data were performed using the same software packages described above with the following changes applied to identify the peptides modified with AEA-DA and the cleaved TEV tag. All amino acids were considered as possible residues for modification. To facilitate the computational searches, sets of up to 3 amino acids were searched using ProLuCID and filtered with DTASelect as described above. The mass of the modification used to search for probe-modified peptides was +727.4745 m/z for the probe plus the light TEV-tag and +733.4831 m/z for the heavy counterpart. […] For global mapping experiments, AEA-DA-modified peptides were expected to show a ratio of “heavy” and “light” signals of ˜1.0 (0.5<ratio<2.0) and were required to have been detected in at least two of the twelve replicate experiments.
(§2) In some embodiments, the ligands are tested for their interaction to NUCB1 in cells. […] MJN228 inhibited lipid probe binding to NUCB1 at concentrations as low as 10 μM, with near-maximal inhibition observed at ˜25 μM (FIG. 16A). […] The site of arachidonoyl probe (and MJN228) binding to NUCB1 was mapped in cells, which was accomplished by treating Neuro2A cells with the AEA-DA probe (50 μM) in the presence of DMSO or MJN228 (50 μM), followed by UV irradiation, CuAAC conjugation of AEA-DA-labeled proteins to isotopically light (DMSO-treated cells) and heavy (MJN228-treated cells) azide-biotin tags featuring a TEV protease-cleavable linker, and LCMS/MS analysis using a previously described platform, termed isoTOP-ABPP, for mapping probe-modified peptides in proteomes (Speers and Cravatt, 2005). A AEA-DA labeled peptide was identified for NUCB1 (aa 53-68) in DMSO-treated cells and the signals for this peptide were substantially (>5-fold) reduced in MJN228-treated cells (FIG. 15C). This AEA-DA labeling site was confirmed using recombinant, purified hNUCB1 and tandem MS analysis which narrowed down the site of probe modification to His67 (FIGS. 16B and 16C).

[2] = target: T2, AEA-DA-modified peptides in Neuro2a cells (Mus musculus, UniProt O55022); settings: probe 100 μM, 12 replicates
T2 construct: endogenous in cells; host or cells: Neuro2a
Procedure: as §1, §2

[3] = target: T3, AEA-DA-modified peptides in Neuro2a cells (Mus musculus, UniProt P14733); settings: AEA-DA-modified peptide LMNB1 P14733 159-183, SEQ ID NO 56; probe 100 μM, 12 replicates
T3 construct: endogenous in cells; host or cells: Neuro2a
Procedure: as §1, §2

[4] = target: T4, AEA-DA-modified peptides in Neuro2a cells (Mus musculus, UniProt P36536); settings: AEA-DA-modified peptide SAR1A P36536 192-199, SEQ ID NO 95; probe 100 μM, 12 replicates
T4 construct: endogenous in cells; host or cells: Neuro2a
Procedure: as §1, §2

[5] = target: T5, AEA-DA-modified peptides in Neuro2a cells (Mus musculus, UniProt P70699); settings: AEA-DA-modified peptide GAA P70699 904-935, SEQ ID NO 41; probe 100 μM, 12 replicates
T5 construct: endogenous in cells; host or cells: Neuro2a
Procedure: as §1, §2

[6] = target: T6, AEA-DA-modified peptides in Neuro2a cells (Mus musculus, UniProt Q62351); settings: AEA-DA-modified peptide TFRC Q62351 7-23, SEQ ID NO 110; probe 100 μM, 12 replicates
T6 construct: endogenous in cells; host or cells: Neuro2a
Procedure: as §1, §2

[7] = target: T7, AEA-DA-modified peptides in Neuro2a cells (Mus musculus, UniProt Q8BKE6); settings: AEA-DA-modified peptide CYP20A1 Q8BKE6 397-414, SEQ ID NO 29; probe 100 μM, 12 replicates
T7 construct: endogenous in cells; host or cells: Neuro2a
Procedure: as §1, §2

[8] = target: T8, AEA-DA-modified peptides in Neuro2a cells (Mus musculus, UniProt Q91V01); settings: AEA-DA-modified peptide LPCAT3 Q91V01 18-31, SEQ ID NO 58; probe 100 μM, 12 replicates
T8 construct: endogenous in cells; host or cells: Neuro2a
Procedure: as §1, §2

[9] = target: T9, AEA-DA-modified peptides in Neuro2a cells (Mus musculus, UniProt Q91WC3); settings: AEA-DA-modified peptide ACSL6 Q91WC3 408-420, SEQ ID NO 3; probe 100 μM, 12 replicates
T9 construct: endogenous in cells; host or cells: Neuro2a
Procedure: as §1, §2

[10] = target: T10, AEA-DA-modified peptides in Neuro2a cells (Mus musculus, UniProt Q99M71); settings: AEA-DA-modified peptide EPDR1 Q99M71 171-182, SEQ ID NO 38; probe 100 μM, 12 replicates
T10 construct: endogenous in cells; host or cells: Neuro2a
Procedure: as §1, §2

[11] = target: T11, AEA-DA-modified peptides in Neuro2a cells (Mus musculus, UniProt Q9CQX2); settings: AEA-DA-modified peptide CYB5B Q9CQX2 138-145, SEQ ID NO 28; probe 100 μM, 12 replicates
T11 construct: endogenous in cells; host or cells: Neuro2a
Procedure: as §1, §2

T2 sequence (O55022 whole entry): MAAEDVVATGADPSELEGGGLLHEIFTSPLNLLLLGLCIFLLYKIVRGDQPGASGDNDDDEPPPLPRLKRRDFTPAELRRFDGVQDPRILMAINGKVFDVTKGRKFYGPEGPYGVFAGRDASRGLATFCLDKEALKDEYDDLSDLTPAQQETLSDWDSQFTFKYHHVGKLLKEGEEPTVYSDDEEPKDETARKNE
T1 sequence (O35459 34-327): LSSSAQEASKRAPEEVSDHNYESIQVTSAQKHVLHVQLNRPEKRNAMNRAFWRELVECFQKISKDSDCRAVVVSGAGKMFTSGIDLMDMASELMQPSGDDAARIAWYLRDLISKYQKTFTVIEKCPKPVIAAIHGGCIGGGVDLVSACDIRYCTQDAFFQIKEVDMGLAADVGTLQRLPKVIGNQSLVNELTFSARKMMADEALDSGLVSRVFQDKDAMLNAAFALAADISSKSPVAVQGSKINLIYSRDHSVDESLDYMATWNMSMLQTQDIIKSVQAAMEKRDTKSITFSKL
T8 sequence (Q91V01 whole entry): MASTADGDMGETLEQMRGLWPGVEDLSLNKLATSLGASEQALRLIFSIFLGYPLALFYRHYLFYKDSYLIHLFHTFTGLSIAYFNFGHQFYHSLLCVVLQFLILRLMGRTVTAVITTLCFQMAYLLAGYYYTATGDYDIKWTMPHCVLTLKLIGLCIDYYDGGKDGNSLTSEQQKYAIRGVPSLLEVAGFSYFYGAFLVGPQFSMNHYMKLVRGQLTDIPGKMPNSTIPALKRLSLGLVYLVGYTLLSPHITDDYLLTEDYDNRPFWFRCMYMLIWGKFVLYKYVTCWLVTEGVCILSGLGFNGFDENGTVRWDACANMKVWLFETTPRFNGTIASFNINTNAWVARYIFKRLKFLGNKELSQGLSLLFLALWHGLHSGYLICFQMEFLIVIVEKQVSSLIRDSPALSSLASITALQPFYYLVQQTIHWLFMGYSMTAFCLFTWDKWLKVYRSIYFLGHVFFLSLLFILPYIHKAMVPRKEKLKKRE
T4 sequence (P36536 whole entry): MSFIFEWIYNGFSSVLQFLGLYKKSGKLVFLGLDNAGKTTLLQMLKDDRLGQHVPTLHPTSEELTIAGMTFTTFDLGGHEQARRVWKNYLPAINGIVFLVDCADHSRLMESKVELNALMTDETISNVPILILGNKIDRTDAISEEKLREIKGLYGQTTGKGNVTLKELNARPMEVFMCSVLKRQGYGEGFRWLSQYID
T5 sequence (P70699 70-953): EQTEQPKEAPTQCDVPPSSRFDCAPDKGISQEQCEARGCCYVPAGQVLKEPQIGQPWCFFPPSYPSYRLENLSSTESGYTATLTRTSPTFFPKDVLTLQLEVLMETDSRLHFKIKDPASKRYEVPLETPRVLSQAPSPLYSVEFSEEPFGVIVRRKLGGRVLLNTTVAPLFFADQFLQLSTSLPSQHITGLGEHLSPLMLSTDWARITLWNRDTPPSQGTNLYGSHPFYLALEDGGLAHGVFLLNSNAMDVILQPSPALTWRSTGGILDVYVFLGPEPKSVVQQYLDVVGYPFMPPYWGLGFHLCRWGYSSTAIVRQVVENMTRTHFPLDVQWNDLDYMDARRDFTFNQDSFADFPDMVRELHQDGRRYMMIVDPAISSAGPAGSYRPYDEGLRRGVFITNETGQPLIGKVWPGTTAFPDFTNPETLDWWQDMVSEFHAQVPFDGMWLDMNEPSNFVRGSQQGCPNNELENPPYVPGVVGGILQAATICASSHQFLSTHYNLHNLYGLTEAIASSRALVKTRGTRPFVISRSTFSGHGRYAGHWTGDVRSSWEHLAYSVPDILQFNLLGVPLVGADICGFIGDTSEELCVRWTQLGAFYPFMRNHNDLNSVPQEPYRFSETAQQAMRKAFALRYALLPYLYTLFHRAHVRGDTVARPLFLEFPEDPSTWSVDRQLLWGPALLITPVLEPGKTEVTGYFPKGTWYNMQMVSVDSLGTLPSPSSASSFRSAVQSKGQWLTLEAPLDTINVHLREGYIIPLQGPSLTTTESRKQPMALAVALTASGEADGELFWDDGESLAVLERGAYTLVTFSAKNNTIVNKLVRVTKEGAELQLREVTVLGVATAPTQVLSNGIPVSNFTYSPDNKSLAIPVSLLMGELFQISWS
T9 sequence (Q91WC3 whole entry): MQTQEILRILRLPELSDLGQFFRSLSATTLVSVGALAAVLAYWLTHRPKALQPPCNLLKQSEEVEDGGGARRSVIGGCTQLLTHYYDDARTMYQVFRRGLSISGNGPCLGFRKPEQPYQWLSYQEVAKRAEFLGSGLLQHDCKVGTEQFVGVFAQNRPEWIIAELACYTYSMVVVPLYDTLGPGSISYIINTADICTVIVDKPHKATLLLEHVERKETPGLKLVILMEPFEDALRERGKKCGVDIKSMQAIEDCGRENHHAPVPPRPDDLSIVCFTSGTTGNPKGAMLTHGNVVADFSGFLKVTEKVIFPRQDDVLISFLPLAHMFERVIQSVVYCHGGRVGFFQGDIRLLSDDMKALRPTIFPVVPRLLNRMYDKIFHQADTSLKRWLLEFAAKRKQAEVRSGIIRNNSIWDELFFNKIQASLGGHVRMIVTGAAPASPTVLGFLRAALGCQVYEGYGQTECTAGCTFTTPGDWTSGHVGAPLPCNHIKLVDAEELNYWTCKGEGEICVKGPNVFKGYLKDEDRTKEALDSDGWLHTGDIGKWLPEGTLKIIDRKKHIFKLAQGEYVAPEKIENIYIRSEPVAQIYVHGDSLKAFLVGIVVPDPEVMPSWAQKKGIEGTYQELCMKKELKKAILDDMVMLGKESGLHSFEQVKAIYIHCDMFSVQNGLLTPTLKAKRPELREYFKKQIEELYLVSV
T10 sequence (Q99M71 38-224): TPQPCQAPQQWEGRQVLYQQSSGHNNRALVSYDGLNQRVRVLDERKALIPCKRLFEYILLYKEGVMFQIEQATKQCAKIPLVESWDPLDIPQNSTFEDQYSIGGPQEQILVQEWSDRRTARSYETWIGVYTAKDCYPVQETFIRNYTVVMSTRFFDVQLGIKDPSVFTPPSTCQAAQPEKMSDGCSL
T6 sequence (Q62351 whole entry): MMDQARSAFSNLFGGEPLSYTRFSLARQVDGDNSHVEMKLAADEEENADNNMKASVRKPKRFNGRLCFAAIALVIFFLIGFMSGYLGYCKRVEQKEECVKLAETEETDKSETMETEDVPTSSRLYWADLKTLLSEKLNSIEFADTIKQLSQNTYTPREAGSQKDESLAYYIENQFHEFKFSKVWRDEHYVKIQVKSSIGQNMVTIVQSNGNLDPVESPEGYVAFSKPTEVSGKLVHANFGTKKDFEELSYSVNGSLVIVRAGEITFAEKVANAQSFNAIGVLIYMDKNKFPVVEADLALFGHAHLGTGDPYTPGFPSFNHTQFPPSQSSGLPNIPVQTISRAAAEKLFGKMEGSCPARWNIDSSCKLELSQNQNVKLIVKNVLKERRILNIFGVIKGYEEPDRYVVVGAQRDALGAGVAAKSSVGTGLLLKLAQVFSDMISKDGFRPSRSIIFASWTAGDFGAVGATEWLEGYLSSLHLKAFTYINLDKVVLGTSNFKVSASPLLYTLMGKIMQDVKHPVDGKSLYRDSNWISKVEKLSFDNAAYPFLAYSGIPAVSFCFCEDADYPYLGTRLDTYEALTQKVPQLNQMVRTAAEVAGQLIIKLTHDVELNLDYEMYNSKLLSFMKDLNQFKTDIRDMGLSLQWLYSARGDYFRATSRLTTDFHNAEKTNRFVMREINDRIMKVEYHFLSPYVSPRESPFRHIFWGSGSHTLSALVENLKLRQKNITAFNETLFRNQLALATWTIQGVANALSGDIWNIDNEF
T3 sequence (P14733 whole entry): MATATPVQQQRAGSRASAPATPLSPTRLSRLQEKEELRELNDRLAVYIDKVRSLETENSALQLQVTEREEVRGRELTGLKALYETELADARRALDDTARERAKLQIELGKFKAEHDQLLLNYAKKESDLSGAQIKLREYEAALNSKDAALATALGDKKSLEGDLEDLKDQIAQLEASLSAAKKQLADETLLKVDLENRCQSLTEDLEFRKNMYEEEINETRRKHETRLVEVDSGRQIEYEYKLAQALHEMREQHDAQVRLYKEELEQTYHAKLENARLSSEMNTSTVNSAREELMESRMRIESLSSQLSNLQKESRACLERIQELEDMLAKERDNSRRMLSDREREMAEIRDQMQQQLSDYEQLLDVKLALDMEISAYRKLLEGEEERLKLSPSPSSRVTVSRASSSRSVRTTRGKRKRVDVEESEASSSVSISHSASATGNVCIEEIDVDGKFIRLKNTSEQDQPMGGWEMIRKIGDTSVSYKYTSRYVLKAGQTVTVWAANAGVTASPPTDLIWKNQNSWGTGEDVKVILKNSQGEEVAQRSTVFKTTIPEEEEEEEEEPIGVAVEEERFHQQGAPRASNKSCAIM
T7 sequence (Q8BKE6 whole entry): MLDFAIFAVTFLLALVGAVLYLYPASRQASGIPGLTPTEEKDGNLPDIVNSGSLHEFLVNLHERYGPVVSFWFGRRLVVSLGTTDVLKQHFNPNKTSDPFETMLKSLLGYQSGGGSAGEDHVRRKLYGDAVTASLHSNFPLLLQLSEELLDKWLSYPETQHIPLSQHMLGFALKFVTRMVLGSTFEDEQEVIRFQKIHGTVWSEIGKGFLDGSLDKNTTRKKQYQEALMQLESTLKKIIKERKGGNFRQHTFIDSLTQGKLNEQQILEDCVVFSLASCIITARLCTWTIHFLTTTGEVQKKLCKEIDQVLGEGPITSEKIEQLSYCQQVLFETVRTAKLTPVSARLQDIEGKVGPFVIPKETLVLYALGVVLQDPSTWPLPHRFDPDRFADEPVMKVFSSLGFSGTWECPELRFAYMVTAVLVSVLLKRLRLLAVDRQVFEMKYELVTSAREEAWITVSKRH
T11 sequence (Q9CQX2 12-146): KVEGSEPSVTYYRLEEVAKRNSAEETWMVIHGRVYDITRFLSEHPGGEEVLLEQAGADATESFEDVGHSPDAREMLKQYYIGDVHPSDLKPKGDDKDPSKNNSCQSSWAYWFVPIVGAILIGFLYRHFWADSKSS

C#CCCCC1(CC/C=C\C/C=C\C/C=C\CCCC(=O)NCCO)N=N1 [AEA-DA, (5Z,8Z,11Z)-N-(2-hydroxyethyl)-14-(3-(pent-4-yn-1-yl)-3H-diazirin-3-yl)tetradeca-5,8,11-trienamide]
Times observed ([1]; AEA-DA-modified peptide ECH1 O35459 185-211, SEQ ID NO 32): 4
Times observed ([1]; AEA-DA-modified peptide ECH1 O35459 196-211, SEQ ID NO 33): 8
Times observed ([2]; AEA-DA-modified peptide PGRMC1 O55022 48-68, SEQ ID NO 82): 2
Times observed ([2]; AEA-DA-modified peptide PGRMC1 O55022 106-120, SEQ ID NO 81): 12
Times observed [3]: 2
Times observed [4]: 6
Times observed [5]: 11
Times observed [6]: 2
Times observed [7]: 8
Times observed [8]: 2
Times observed [9]: 6
Times observed [10]: 3
Times observed [11]: 2

Reference: patent US10168342B2, “Lipid probes and uses thereof” (THE SCRIPPS RESEARCH INSTITUTE, priority 2015, dated 2019)
